Data on one compound can be found in US7705052B2, “Sulfonamide derivatives for the treatment of diabetes” (Merck Serono SA, priority 2003, dated 2010).

In this assay the test system is db/db mice. Description: In vivo assay in db/db mice (model of postprandial glycemia). The following applies: db/db mice fasted 20 hours, 50 mg/kg p.o., 4 hrs after drug administration, compared to vehicle-treated animals (Group 1). The procedure: In Vivo Assay in db/db Mice
The following assay aims at determining the anti-diabetic effect of the test compounds of formula (I) in a model of postprandial glycemia in db/db mice, in vivo.
The assay was performed as follows:
A total of 18 db/db mice (about 8-9 weeks; obtained from IFFACREDO, l'Arbreste, France) were fasted during 20 hours.
3 groups, each consisting of 6 animals were formed: • Group 1: The animals were administered (per os) a dose of 10 mg/kg of vehicle. • Group 2: The animals were administered (per os) a dose of 30 mg/kg of the test compound according to formula (I). • Group 3: The animals were administered (per os) a dose of 50 mg/kg of the test compound according to formula (I).
After oral administration of the compounds of formula (I) solubilized or suspended in CarboxyMethylCellulose (0.5%), Tween 20 (0.25%) and water as vehicle, the animals had access to commercial food (D04, UAR, Villemoisson/Orge, France) ad libitum. The diabetic state of the mice was verified by determining the blood glucose level before drug administration. Blood glucose and serum insulin levels were then determined 4 hrs after drug administration. […]
Changes in blood glucose and serum insulin of drug treated mice were expressed as a percentage of control (group 1: vehicle treated mice).

As to `CCCCNC1CCN(S(=O)(=O)c2ccc(CNC(=O)c3ccc(Cl)cc3)s2)CC1` [4-chloro N-[(5-{[(butylamino)piperidin-1-yl]sulfonyl}thien-2-yl)methyl]benzamide], the “decrease in blood glucose level induced by food intake” value amounted to 42%. Under “ELISA”, the “decrease in the (serum/blood) insulin level” value is 61%.
